{"source": "patent US20160303360A1", "about": "“Ultrasonic Transducer and Transdermal Delivery System” (Actuated Medical, Inc., priority 2015, published 2016)", "key": {"[1]": {"details": "pig, in vivo"}, "[2]": {"assay": "in vivo", "details": "pig"}, "[3]": {"details": "human, in vivo, sc; cited from earlier work"}}}
{"substance": "enfuvirtide", "values": [{"measurement": "difference in TEWL between treatment site and control site", "setting": "[1]", "value": "not statistically different"}, {"measurement": "bioavailability", "setting": "[2]", "value": "~30", "unit": "%"}, {"measurement": "patients experiencing injection site reaction", "setting": "[3]", "value": "up to 98%"}]}
